Marks after values point to notes of the source that are not given here. Starred links: 1 amine or outer side, 2 acyl side, 3 side chain; linkers in the order of their positions; H or OH if unused. Non-standard residues stand in square brackets, D forms with d. Residues, ends and D or L forms follow the SMILES beside them. Groups on a side chain read outwards from the residue. *: point of attachment. X1 = CCCCCCCCCCCCCCCC(=O)N[C@@H](CCC(=O)N[C@@H](CCC(=O)N[C@@H](CCC(=O)NCCCOCCOCCOCCCNC(=O)CCC(=O)NCCCOCCOCCOCCCNC(=O)CCC(=O)NCCCOCCOCCOCCCN*)C(=O)O)C(=O)O)C(=O)O; X2 = CCCCCCCCCCCCCCCC(=O)N[C@@H](CCC(=O)N[C@@H](CCC(=O)N[C@@H](CCC(=O)NCCCOCCOCCOCCCNC(=O)CCC(=O)NCCCOCCOCCOCCCN*)C(=O)O)C(=O)O)C(=O)O; Suc = O=C(CCC(=O)[*:2])[*:1]; αMeK = C[C@](N)(CCCCN)C(=O)O; Aib = CC(C)(N)C(=O)O
Legend:
[1] = Stability in rat plasma; type: in vitro ADME; settings: for Rat plasma stability % remaining: T = 0, 37° C., 5 μM; for remaining at 1 h, 5 μM / remaining at 4 h, 5 μM: rat, plasma (sodium or lithium heparin), 37° C.
Procedure: (§1) Prior to the testing of stability in plasma (or blood) of a peptide batch, its purity (HPLC-UV) was determined.
Rat and Human plasma: anti-coagulant sodium or lithium heparin.
(§2) 100 μM solution of study compound in 50 mM phosphate buffer pH 7.4.
(§3) 950 μL plasma (or blood) was pre-incubated for 5 min at 37° C. 50 μL of compound stock solution was added. Final compound concentration=5 μM. Vortex and transfer 150 μL plasma (or blood) into an Eppendorf for each time point. The time points […] were carried out in duplicate for each species.
(§4) After incubation, 150 μL plasma (or blood) was extracted with 600 μL Acetonitrile containing 1% TFA. Said mixture was then vortexed and centrifuged 10 min at 14600 rpm. 200 μL supernatant was dried under N2. Sample was then reconstituted in 200 μL of H2O/CH3CN 98/2+0.1% FA+50 ng/ml Labetalol and analyzed using the analytical system used in solubility and stability studies.
(§5) For determination of the amount of the remaining peptide, the peak areas of the target compound at t0 and each time point […] were compared, resulting in “% remaining peptide”, following the equation: % remaining peptide=[(peak area peptide time)×100]/peak area peptide t0. The stability was expressed as “% remaining peptide”.

[2] = Stability in human blood; type: in vitro ADME; settings: for Human blood stability % remaining: T = 0, 37° C., 5 μM; for remaining at 1 h, 5 μM / remaining at 4 h, 5 μM: human, whole blood (sodium or lithium heparin), 37° C.
Procedure: as §1
Rat and Human blood: anti-coagulant sodium or lithium heparin.
as §2, §3, §4, §5

[3] = in vivo; parameters: species or system Sprague Dawley rats; settings: Sprague Dawley, rat; for bioavailability / Cmax / Tmax: sc; for Cmax / Tmax: 3 mg/kg
Procedure: Prior to the testing of a peptide batch, its purity (HPLC-UV) was determined. Dose was corrected for presence of salts, solvent and purity. Bioanalytical screening method for quantification of peptides in rat: Sprague Dawley rats were dosed with study peptide at a dose of 1 mg/kg intravenously (i.v.) or 3 mg/kg subcutaneously (s.c.) as a solution in PBS (0.2 mg/ml and 0.6 mg/ml respectively). Blood samples were collected after: 0.083, 0.25, 0.5, 1, 2, 4, 8, 24, 48 and 72 h (i.v. route) and 0.25, 0.5, 1, 2, 4, 6, 8, 10, 24, 48 and 72 h (s.c route) post application. Plasma samples were analyzed after protein precipitation via liquid chromatography mass spectrometry (LC/MS). PK parameters and half-life were calculated using Phoenix 64 (WinNonlin 6.4)-Pharsight (Certara™) (non-compartment model). Values below the limit of quantification (BLQ) were replaced by zero for subsequent calculations and PK analysis. T½: in-vivo half-life, time required for test compound plasma concentration to be divided by two during the PK experiment. C0: Extrapolated test compound plasma concentration at t=0 time point (i.v. route). Cmax: maximal test compound plasma concentration at the indicated time point (s.c. route). Tmax: Time point where Cmax was attained. F %: s.c. vs i.v. bioavailability, dose-corrected area under curve (AUC) s.c. route divided by AUC i.v.

| Compound | Rat plasma stability % remaining [1] [%] | remaining at 1 h, 5 μM [1] [%] | remaining at 4 h, 5 μM [1] [%] | Human blood stability % remaining [2] | remaining at 1 h, 5 μM [2] [%] | remaining at 4 h, 5 μM [2] [%] | C0 ([3]; iv, 1 mg/kg) [nM] | half-life ([3]; iv, 1 mg/kg) [h] | bioavailability [3] [%] | Cmax [3] [nM] | Tmax [3] [h] | T½ (h), in-vivo half-life ([3]; iv, 1 mg/kg) [h] |
| --- | --- | --- | --- | --- | --- | --- | --- | --- | --- | --- | --- | --- |
| CCCCCCCCCCCCCCCC(=O)N[C@@H](CCC(=O)N[C@@H](CCC(=O)N[C@@H](CCC(=O)NCCCOCCOCCOCCCNC(=O)CCC(=O)NCCCOCCOCCOCCCNC(=O)CCC(=O)NCCCC[C@H](NC(=O)CNC(=O)[C@H](CCC(=O)O)NC(=O)C(C)(C)NC(=O)C(C)(C)NC(=O)[C@@H](NC(=O)[C@H](CCCCNC(C)=O)NC(=O)[C@H](C)NC(=O)[C@H](CCCNC(=N)N)NC(=O)[C@@H](NC(=O)[C@H](CCCCN)NC(=O)[C@H](CCC(=O)O)NC(=O)[C@H](CCCNC(=N)N)NC(=O)CNC(=O)[C@H](CCC(=O)O)NC(=O)[C@H](CC(C)C)NC(C)=O)C(C)C)[C@@H](C)CC)C(=O)N[C@@H](CO)C(=O)N[C@H](C(=O)N[C@@H](Cc1c[nH]c2ccccc12)C(=O)N[C@@H](CO)C(=O)NC(C)(C)C(=O)N[C@@H](CCCNC(=N)N)C(=O)N[C@@H](CCCCN)C(=O)N[C@@H](CCCCNC(C)=O)C(N)=O)[C@@H](C)O)C(=O)O)C(=O)O)C(=O)O [compound 4] (Ac-LEGREKVRAK(Ac)I[Aib][Aib]EGK([Suc-X2])STWS[Aib]RKK(Ac)-NH2) | 100 | 100 | 59 | 100* % | 100 | 99 | 2750 | 8.71 | 69 | 1990 | 8 | – |
| CCCCCCCCCCCCCCCC(=O)N[C@@H](CCC(=O)N[C@@H](CCC(=O)N[C@@H](CCC(=O)NCCCOCCOCCOCCCNC(=O)CCC(=O)NCCCOCCOCCOCCCNC(=O)CCC(=O)NCCCOCCOCCOCCCNC(=O)CCC(=O)NCCCC[C@H](NC(=O)CNC(=O)[C@H](CCC(=O)O)NC(=O)C(C)(C)NC(=O)C(C)(C)NC(=O)[C@@H](NC(=O)[C@H](CCCCNC(C)=O)NC(=O)[C@H](C)NC(=O)[C@H](CCCNC(=N)N)NC(=O)[C@@H](NC(=O)[C@H](CCCCN)NC(=O)[C@H](CCC(=O)O)NC(=O)[C@H](CCCNC(=N)N)NC(=O)CNC(=O)[C@H](CCC(=O)O)NC(=O)[C@H](CC(C)C)NC(C)=O)C(C)C)[C@@H](C)CC)C(=O)N[C@@H](CO)C(=O)N[C@H](C(=O)N[C@@H](Cc1ccccc1)C(=O)N[C@@H](CO)C(=O)N[C@@](C)(CCCCN)C(=O)N[C@@H](CCCNC(=N)N)C(=O)N[C@@H](C)C(=O)N[C@@H](CCCCNC(C)=O)C(N)=O)[C@@H](C)O)C(=O)O)C(=O)O)C(=O)O [compound 3] (Ac-LEGREKVRAK(Ac)I[Aib][Aib]EGK([Suc-X1])STFS[αMeK]RAK(Ac)-NH2) | 98 | 100 | 87 | 100* % | 95 | 95 | 3200 | – | 83 | 2300 | 8 | 7.8 |

From patent US11725036B2, “Modified lipidated relaxin B chain peptides and their therapeutic use” (Sanofi, priority 2018, dated 2023)
